Data reported in patent US20040077659A1, “Method for treating ppar gamma mediated diseases or conditions” (priority 2003, published 2004).

Tests used:
[1] = system: Zucker Diabetic Fatty rats (ZDF fa/fa); experiment: Diabetic rat study, 28-day; format: in vivo; set-up: total serum protein: unit not given here; conditions: for glycemic control / insulin: 28-day treatment, relative to vehicle treatment; for hematocrit (% RBC volume): vehicle 49±0.3; for hemodilution as indicated by hematocrit and total serum protein: day 28, versus vehicle group
Protocol: The five PPAR pan agonist molecules prepared above were administered by oral gavage to genetically altered rodents that simulate the human disease of type 2 Diabetes Mellitus (Zucker Diabetic Fatty rats (ZDF fa/fa)). As a control a PPAR gamma agonist 2-[2-(methoxycarbonyl)anilino]-3-{4-[2-(5-methyl-2-phenyl-1,3-oxazol-4-yl)ethoxy]phenyl}propanoic acid was also tested. This PPAR gamma agonist can be prepared as described in Cobb, J. E., et al., N-(2-Benzoylphenyl)-L-tyrosine PPARg agonists. 3. Structure-activity relationship and optimization of the N-aryl substituent., J. Med. Chem. 1998, 41, 5055-5069. As an additional control, one group was treated with vehicle alone.
While all five hPPAR pan agonist molecules were evaluated in the above study for 7 days, one of these pan agonists, 2-{4-[({4-{[4-(4-methoxyphenyl)-1-piperazinyl]methyl}-2-[4-(triflouromethyl)phenyl]-1,3-thiazol-5-yl}methyl)sulfanyl]phenoxy}-2-methylpropanoic acid, and the PPAR gamma agonist were tested for 28 days. Animals were treated earlier than in the 7-day study, before the development of diabetes as measured by increased plasma glucose. Measurements were obtained at 7 day intervals and the PPAR pan agonist molecule (♦) was compared to vehicle control (*) and the PPAR gamma agonist (□). [formula] [formula] [formula]

[2] = system: Cynomolgus monkeys; experiment: Primate study, edema and hemodilution; format: in vivo, Cynomolgus monkey; conditions: oral once daily for 63 or 64 days, 1, 5 and 15 mg/kg
Protocol: In addition to the above rat studies, a primate study was conducted using the PPAR pan agonist 2-{4-[({4-{[4-(4-methoxyphenyl)-1-piperazinyl]methyl}-2-[4-(trifluoromethyl)phenyl]-1,3-thiazol-5-yl}methyl)sulfanyl]phenoxy}-2-methylpropanoic acid. In that study, male and female Cynomolgus monkeys were dosed orally once daily for 63 or 64 days with doses projected to provide greater than 3× the serum concentration needed to lower insulin resistance and serum glucose in diabetic patients. The animals were dosed at 0 mg/kg (control), 1 mg/kg, 5 mg/kg, and 15 mg/kg of the PPAR pan agonist. The animals were carefully observed for signs of edema and or hemodilution. Methods of evaluation during the in-life portion of the study included visual observation of swelling, particularly around the eyes and or genitals by a Board Certified pathologist, as well as evaluation of clinical hematology (red blood cell volume) and clinical chemistries (total serum protein) as evidence of hemodilution. At necropsy, careful examination for gross evidence of edema was based on palpation and careful examination of all issue. Special emphasis was given to the gross evaluation of subcutaneous tissue, all fat stores, lungs and all serous cavities.

Row | SMILES | body weight increase from the start of dosing ([1]; 28-day study) | glycemic control [1] | insulin [1] | hematocrit (% RBC volume) ([1]; after 28 days) | hemodilution as indicated by hematocrit and total serum protein [1] | edema in tissues examined histologically [2] | signs of edema or hemodilution during in-life or necropsy portions [2] | body weight gain compared with vehicle treated animals ([1]; 28-day study) | total serum protein ([1]; after 28 days, vehicle 7.5±0.2)
1 | COC(=O)c1ccccc1NC(Cc1ccc(OCCc2nc(-c3ccccc3)oc2C)cc1)C(=O)O (stereo not shown) [PPAR gamma agonist, 2-[2-(methoxycarbonyl)anilino]-3-{4-[2-(5-methyl-2-phenyl-1,3-oxazol-4-yl)ethoxy]phenyl}propanoic acid, reference compound] | 120% | maintained glycemic control | lowered insulin | 43±1.0 % RBC volume | evident |  |  |  | 
2 | COc1ccc(N2CCN(Cc3nc(-c4ccc(C(F)(F)F)cc4)sc3CSc3ccc(OC(C)(C)C(=O)O)cc3)CC2)cc1 [PPAR pan agonist, 2-{4-[({4-{[4-(4-Methoxyphenyl)-1-piperazinyl]methyl}-2-[4-(trifluoromethyl)phenyl]-1,3-thiazol-5-yl}methyl)sulfanyl]phenoxy}-2-methylpropanoic acid] |  | maintained glycemic control | lowered insulin | 48±0.9 % RBC volume | not significantly different from the vehicle group | No evidence of edema | no signs or suggestions of edema or hemodilution | not significantly different from the vehicle treated animals | 7.2±0.2
